Molecules are shown by their SMILES.

The nature of the data set: Permeability of the compound in PBS buffer at pH 7.4 incubated for 16 hrs by LC-MS/MS based PAMPA assay. The conditions noted are these: read-out: permeability. Format: ADME. For orientation: In PAMPA a lipid-coated filter parts donor from acceptor wells.
For `Cc1ncsc1-c1ccc(CNC(=O)[C@@H]2C[C@@H](O)CN2C(=O)[C@@H](NC(=O)CCOCCNC(=O)COc2cnc3c(C4CCN(C(=O)c5ccc(OC(F)(F)F)cc5)CC4)ncnc3c2)C(C)(C)C)cc1`, the Papp at 16 h worked out at 6.21 ×10⁻⁶ cm/s.
Turning to `Cc1ncsc1-c1ccc(CNC(=O)[C@@H]2C[C@@H](O)CN2C(=O)[C@@H](NC(=O)COCCOCCNC(=O)COc2cnc3c(C4CCN(C(=O)c5ccc(OC(F)(F)F)cc5)CC4)ncnc3c2)C(C)(C)C)cc1`, the Papp at 16 h is 6.3 ×10⁻⁶ cm/s.
For `Cc1ncsc1-c1ccc(CNC(=O)[C@@H]2C[C@@H](O)CN2C(=O)[C@@H](NC(=O)CN2CCC(CCCOc3cnc4c(C5CCN(C(=O)c6ccc(OC(F)(F)F)cc6)CC5)ncnc4c3)CC2)C(C)(C)C)cc1`, the Papp at 16 h stood at 6.9 ×10⁻⁶ cm/s.
Take `Cc1ncsc1-c1ccc(CNC(=O)[C@@H]2C[C@@H](O)CN2C(=O)[C@@H](NC(=O)COCc2cn(CCOc3cnc4c(C5CCN(C(=O)c6ccc(OC(F)(F)F)cc6)CC5)ncnc4c3)nn2)C(C)(C)C)cc1`: the Papp at 16 h stood at 7.94 ×10⁻⁶ cm/s.
On to `Cc1ncsc1-c1ccc(CNC(=O)[C@@H]2C[C@@H](O)CN2C(=O)[C@@H](NC(=O)CCOCCOCCOc2cnc3c(C4CCN(C(=O)c5ccc(OC(F)(F)F)cc5)CC4)ncnc3c2)C(C)(C)C)cc1`, for which the Papp at 16 h came out at 5.42 ×10⁻⁶ cm/s.
With `Cc1ncsc1-c1ccc(CNC(=O)[C@@H]2C[C@@H](O)CN2C(=O)[C@@H](NC(=O)Cc2ccc(OCCOc3cnc4c(C5CCN(C(=O)c6ccc(OC(F)(F)F)cc6)CC5)ncnc4c3)cc2)C(C)(C)C)cc1`, the Papp at 16 h worked out at 7.56 ×10⁻⁶ cm/s.
`Cc1ncsc1-c1ccc(CNC(=O)[C@@H]2C[C@@H](O)CN2C(=O)[C@@H](NC(=O)CN(C)CCCCCCOc2cnc3c(C4CCN(C(=O)c5ccc(OC(F)(F)F)cc5)CC4)ncnc3c2)C(C)(C)C)cc1`: the Papp at 16 h stood at 6.67 ×10⁻⁶ cm/s.
To `Cc1ncsc1-c1ccc(CNC(=O)[C@@H]2C[C@@H](O)CN2C(=O)[C@@H](NC(=O)CCCCCCCCOc2cnc3c(C4CCN(C(=O)c5ccc(OC(F)(F)F)cc5)CC4)ncnc3c2)C(C)(C)C)cc1` belongs 8.29 ×10⁻⁶ cm/s.
As for `Cc1ncsc1-c1ccc(CNC(=O)[C@@H]2C[C@@H](O)CN2C(=O)[C@@H](NC(=O)Cc2ccc(OCCOc3cnc4c(C5CCN(C(=O)c6ccc(OC(F)(F)F)cc6)CC5)ncnc4c3)cn2)C(C)(C)C)cc1`, the Papp at 16 h turned out to be 7.28 ×10⁻⁶ cm/s.

For the origin of these results see ChEMBL document CHEMBL6087447, “Impact of Linker Composition on VHL PROTAC Cell Permeability” (J Med Chem, 2025).
